PubChem BioAssay (NCI)
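Growth conditions: 96-well plates. Treatment: test compound, 48 hours, 5 concentrations. Analysis: linear interpolation between bracketing concentrations; unreached endpoints set to highest concentration. TGI is the concentration that stops growth completely.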

Experiments:
Test in all cases: growth of human tumour cells (NCI), 48 h
[1] = system: HT29 colon
[2] = system: SNB-75 CNS
[3] = system: CAKI-1 renal
[4] = system: A498 renal
[5] = system: SK-MEL-2 melanoma
[6] = system: SNB-19 CNS
[7] = system: SF-539 CNS
[8] = system: A549 NSCLC
[9] = system: OVCAR-4 ovarian
[10] = system: SN12C renal
[11] = system: HS 578T breast
[12] = system: OVCAR-3 ovarian
[13] = system: HCC-2998 colon
[14] = system: SK-MEL-28 melanoma
[15] = system: HCT-15 colon
[16] = system: UACC-257 melanoma
[17] = system: COLO 205 colon
[18] = system: T-47D breast
[19] = system: SK-OV-3 ovarian
[20] = system: OVCAR-8 ovarian
[21] = system: SK-MEL-5 melanoma
[22] = system: HL-60(TB) leukemia
[23] = system: MOLT-4 leukemia
[24] = system: NCI-H23 lung
[25] = system: IGROV1 ovarian
[26] = system: SF-268 CNS
[27] = system: OVCAR-5 ovarian
[28] = system: MDA-MB-231 breast
[29] = system: MDA-MB-435
[30] = system: MDA-N
[31] = system: 786-0 renal
[32] = system: NCI-H226 lung
[33] = system: NCI-H522 lung
[34] = system: LOX IMVI melanoma
[35] = system: EKVX NSCLC
[36] = system: SR leukemia
[37] = system: CCRF-CEM leukemia
[38] = system: MALME-3M melanoma
[39] = system: RPMI-8226 leukemia
[40] = system: UACC-62 melanoma
[41] = system: UO-31 renal
[42] = system: NCI/ADR-RES ovarian
[43] = system: RXF 393 renal
[44] = system: HOP-92 NSCLC
[45] = system: HOP-62 NSCLC
[46] = system: PC-3 prostate
[47] = system: TK-10 renal
[48] = system: ACHN renal
[49] = system: HCT-116 colon
[50] = system: KM12 colon
[51] = system: DU-145 prostate
[52] = system: SF-295 CNS
[53] = system: MCF7 breast
[54] = system: M14 melanoma
[55] = system: BT-549 breast
[56] = system: U251 CNS
[57] = system: K-562 leukemia
[58] = system: NCI-H460 lung
[59] = system: SW-620 colon

SMILES: CC(CC(=O)CO[C@H]1[C@H](O)[C@@H](O)[C@@H](O)[C@@H]2NC(=O)c3c(cc4c(c3O)OCO4)[C@H]21)OC1OC(CO)C(O)C(O)C1O (stereo partly drawn)
- TGI [1]: 2.32 µM
- TGI [2]: 0.884 µM
- TGI [3]: > 100 µM
- TGI [4]: 4.39 µM
- TGI [5]: 0.859 µM
- TGI [6]: 7.89 µM
- TGI [7]: 1.86 µM
- TGI [8]: 9.23 µM
- TGI [9]: 1.27 µM
- TGI [10]: 2.14 µM
- TGI [11]: 3.76 µM
- TGI [12]: 2.65 µM
- TGI [13]: 0.633 µM
- TGI [14]: 14.3 µM
- TGI [15]: 3.43 µM
- TGI [16]: 6.19 µM
- TGI [17]: 1.16 µM
- TGI [18]: 0.894 µM
- TGI [19]: 3.87 µM
- TGI [20]: 2.07 µM
- TGI [21]: 1.48 µM
- TGI [22]: 2.45 µM
- TGI [23]: 3.54 µM
- TGI [24]: 3.07 µM
- TGI [25]: 6.82 µM
- TGI [26]: 3.81 µM
- TGI [27]: 5.7 µM
- TGI [28]: 1.89 µM
- TGI [29]: 4.5 µM
- TGI [30]: 3.91 µM
- TGI [31]: 2.92 µM
- TGI [32]: 3.54 µM
- TGI [33]: 1.23 µM
- TGI [34]: 1.32 µM
- TGI [35]: 3.46 µM
- TGI [36]: 2.22 µM
- TGI [37]: 0.582 µM
- TGI [38]: 3.16 µM
- TGI [39]: 2.07 µM
- TGI [40]: 4.17 µM
- TGI [41]: 8.11 µM
- TGI [42]: 3.97 µM
- TGI [43]: 1.8 µM
- TGI [44]: 4.57 µM
- TGI [45]: 2.29 µM
- TGI [46]: 1.48 µM
- TGI [47]: 1.55 µM
- TGI [48]: 2.6 µM
- TGI [49]: 1.67 µM
- TGI [50]: 1.77 µM
- TGI [51]: 0.664 µM
- TGI [52]: 5.65 µM
- TGI [53]: 1.47 µM
- TGI [54]: 2.17 µM
- TGI [55]: 3.76 µM

SMILES: COc1cc(N(CCC#N)CCC#N)ccc1/C(N=Nc1ccc(C)cc1)=N/NC(=O)c1cc(Br)ccc1O
- TGI [1]: > 100 µM
- TGI [2]: 75 µM
- TGI [3]: 66.6 µM
- TGI [5]: 96.5 µM
- TGI [6]: > 100 µM
- TGI [56]: > 100 µM
- TGI [7]: > 100 µM
- TGI [8]: > 100 µM
- TGI [9]: 63.1 µM
- TGI [10]: 54.9 µM
- TGI [11]: > 100 µM
- TGI [12]: 67.3 µM
- TGI [13]: 50.1 µM
- TGI [14]: 85.2 µM
- TGI [15]: 33 µM
- TGI [16]: 83.8 µM
- TGI [17]: 29.1 µM
- TGI [18]: 47.3 µM
- TGI [19]: > 100 µM
- TGI [20]: 88 µM
- TGI [21]: 37 µM
- TGI [22]: 40.9 µM
- TGI [23]: 37.3 µM
- TGI [24]: 39.3 µM
- TGI [25]: 21.9 µM
- TGI [26]: 91.4 µM
- TGI [27]: > 100 µM
- TGI [28]: 55.2 µM
- TGI [29]: > 100 µM
- TGI [30]: > 100 µM
- TGI [57]: > 100 µM
- TGI [31]: > 100 µM
- TGI [32]: > 100 µM
- TGI [33]: 50.3 µM
- TGI [34]: 59 µM
- TGI [35]: 66.7 µM
- TGI [36]: 76.3 µM
- TGI [37]: 25.2 µM
- TGI [38]: > 100 µM
- TGI [39]: > 100 µM
- TGI [40]: 45.1 µM
- TGI [41]: 60.3 µM
- TGI [42]: > 100 µM
- TGI [43]: 65.6 µM
- TGI [44]: 65.6 µM
- TGI [45]: 96.5 µM
- TGI [46]: 66.5 µM
- TGI [47]: 82 µM
- TGI [48]: > 100 µM
- TGI [49]: 41.2 µM
- TGI [50]: 44.9 µM
- TGI [51]: 94.7 µM
- TGI [58]: 54.4 µM
- TGI [59]: > 100 µM
- TGI [52]: > 100 µM
- TGI [53]: > 100 µM
- TGI [54]: > 100 µM
- TGI [55]: 62.6 µM
